Experimental data: ChEMBL document CHEMBL4184159, “Delphinidin inhibits BDNF-induced migration and invasion in SKOV3 ovarian cancer cells” (2017)
Calls of active or inactive are those of the source. No cut-off for these calls is given here.

Columns and labels:
SK-OV-3 [1] = test: Inhibition of BDNF-induced invasion in human SKOV3 cells at 20 uM after 24 hrs in by matrigel invasion assay; format: functional, cell-based
[2] = target: RAC-alpha serine/threonine-protein kinase (Homo sapiens) (UniProt P31749); test: Inhibition of BDNF-induced AKT phosphorylation in human SKOV3 cells after 24 hrs by Western blot analysis; format: cell-based
SK-OV-3 [3] = test: Antimigratory activity against human SKOV3 cells assessed as inhibition of BDNF-induced cell migration at 20 uM after 24 hrs by scratch wound healing assay; format: functional, cell-based
SK-OV-3 [4] = test: Antiproliferative activity against human SKOV3 cells at 10 uM after 24 hrs by CCK-8 assay; format: functional
Homo sapiens = species on record: Homo sapiens; test: Inhibition of BDNF-induced NFkappaB nuclear translocation in human SKOV3 cells at 50 to 75 uM after 24 hrs by Western blot analysis; format: cell-based
SK-OV-3 [5] = test: Antimigratory activity against human SKOV3 cells assessed as inhibition of BDNF-induced cell migration after 24 hrs by scratch wound healing assay; format: functional, cell-based
SK-OV-3 [6] = test: Downregulation of BDNF-induced MMP2 mRNA expression in human SKOV3 cells after 24 hrs by qRT-PCR analysis; format: functional, cell-based
SK-OV-3 [7] = test: Antiproliferative activity against human SKOV3 cells at 200 uM after 24 hrs by CCK-8 assay; format: functional, cell-based
SK-OV-3 [8] = test: Antiproliferative activity against human SKOV3 cells at 50 uM after 24 hrs by CCK-8 assay; format: functional
SK-OV-3 [9] = test: Inhibition of BDNF-induced invasion in human SKOV3 cells after 24 hrs in by matrigel invasion assay; format: functional, cell-based
SK-OV-3 [10] = test: Antiproliferative activity against human SKOV3 cells at 75 uM after 24 hrs by CCK-8 assay; format: functional
SK-OV-3 [11] = test: Downregulation of BDNF-induced MMP9 mRNA expression in human SKOV3 cells after 24 hrs by qRT-PCR analysis; format: functional, cell-based
SK-OV-3 [12] = test: Antiproliferative activity against human SKOV3 cells at 5 uM after 24 hrs by CCK-8 assay; format: functional
SK-OV-3 [13] = test: Antiproliferative activity against human SKOV3 cells at 100 uM after 24 hrs by CCK-8 assay; format: functional, cell-based

RAC-alpha serine/threonine-protein kinase (Homo sapiens), sequence (P31749 whole entry): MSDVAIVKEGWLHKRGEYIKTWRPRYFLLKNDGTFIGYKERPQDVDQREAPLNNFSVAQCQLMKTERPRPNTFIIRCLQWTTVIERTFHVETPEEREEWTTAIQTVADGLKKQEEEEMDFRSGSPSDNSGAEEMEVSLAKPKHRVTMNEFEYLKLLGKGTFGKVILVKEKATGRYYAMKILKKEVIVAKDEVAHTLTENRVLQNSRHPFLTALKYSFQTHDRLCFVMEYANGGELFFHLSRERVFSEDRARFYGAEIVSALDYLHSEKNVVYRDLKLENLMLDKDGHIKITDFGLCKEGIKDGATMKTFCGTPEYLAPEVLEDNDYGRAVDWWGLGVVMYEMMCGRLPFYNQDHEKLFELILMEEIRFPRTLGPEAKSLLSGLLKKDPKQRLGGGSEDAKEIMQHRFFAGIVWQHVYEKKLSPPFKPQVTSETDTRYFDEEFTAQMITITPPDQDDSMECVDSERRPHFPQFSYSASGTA

## O=c1cc(N2CCOCC2)oc2c(-c3ccccc3)cccc12
SK-OV-3 [1]
  inhibition: Active
[2]
  inhibition: Dose-dependent effect
SK-OV-3 [3]
  inhibition: Active

## Oc1cc(O)c2cc(O)c(-c3cc(O)c(O)c(O)c3)[o+]c2c1.[Cl-] [DELPHINIDIN CHLORIDE]
SK-OV-3 [4]
  Activity: >98%
Homo sapiens
  inhibition: Active
SK-OV-3 [5]
  Activity: Dose-dependent effect
SK-OV-3 [6]
  Activity: Dose-dependent effect
SK-OV-3 [7]
  Activity: Active
SK-OV-3 [8]
  Activity: >98%
SK-OV-3 [9]
  inhibition: Dose-dependent effect
[2]
  inhibition: Dose-dependent effect
SK-OV-3 [10]
  Activity: >98%
SK-OV-3 [11]
  Activity: Dose-dependent effect
SK-OV-3 [12]
  Activity: >98%
SK-OV-3 [13]
  Activity: Active
